Measured values as given in patent US12674795B2, “Method for peritoneal metastatic cell detection and isolation thereof” (THE UNIVERSITY OF HONG KONG, priority 2019, dated 2026).

Assays:
M-CSC-HPMC interaction = test: Microfluidic perfusion assay of M-CSCs on HPMC-coated channels under shear stress; assay type: cell-based, human; settings: for effect on M-CSCs binding/adhesion to HPMCs: M-CSCs treated before perfusion, result in words
Procedure: (§1) Microfluidic chips were fabricated as described^13. To coat microfluidic channels with selectin recombinant proteins, channels were incubated with 1 μg mL^−1 selectin-Fc recombinant proteins in PBS at 4° C. overnight. To coat microfluidic channels with HPMCs, channels were incubated with 10 μg mL^−1 human fibronectin in serum free medium overnight at 4° C. After wash, the channels were introduced with HPMCs suspension (3.5×10^6 mL^−1) and cultured overnight under C02 incubator at 37° C. To functionally block selectins, HPMCs were incubated with 20 μg mL^−1 anti-E-selectin, anti-P-selectin, anti-L-selectin or isotype antibody at room temperature for 1 h before the assays.
(§2) CSCs of 70-100 μm diameter were collected with cell strainer, fluorescently labeled with CMFDA Celltracker (2.5 μg mL^−1, C7025, Life Technologies) as per manufacturer's instructions for assays. Fluorescently labeled CSCs resuspended in binding buffer (1500 spheroids mL^−1) were perfused into the microfluidic channel through a syringe pump (LongerPump) under desired shear stresses. The viscosity of the binding buffer (0.9 cp) is within the range of viscosity (0.95±0.15 cp) of ascitic fluid in patients with various ascitic etiologies^48. The motion of cancer spheroids was observed under fluorescent microscope (Nikon ECLIPSE Ti) and serial time lapse images (1 image sec^−1) were captured for 30 sec. More than three randomly chosen areas (4× objective) were captured for each treatment.
(§3) The motion of cancer spheroids under flow was analyzed offline using Image J (National Institutes of Health) and used for the classification of interactions as described^49. Briefly, cancer spheroids that tethered to the surface, then detached in the flow were defined as tethering. Cancer spheroids that moved at a velocity below the hydrodynamic velocity for more than one spheroid diameter were defined as rolling. Cancer spheroids that remained stationary for more than one frame during recording were determined as adhesion. Percentage of tethering or adhesion was calculated by dividing the number of tethering or adherent spheroids by the total number of spheroids flew through the field of observation in the 30 sec duration.
(§4) In some experiments, M-CSCs were incubated with or without neuramidase (100 mU, N2876, Sigma-Aldrich), α1-3,4 fucosidase (150 mU, P0769S, New England BioLabs), OSGE (100 μg mL^−1, CLE100, Cedarlane) or PNGase (10 U mL^−1, P0704S, New England BioLabs) according to the manufacturer's instructions for 1 h at 37° C. prior staining. To inhibit sulfation, M-CSCs were incubated with sodium chlorate (25 mM, 403016, Sigma-Aldrich) in serum-free medium for 48 h. To functionally block sLe^x, sLe^a or IGF-1R on M-CSCs, M-CSCs were incubated with CSLEX-1 (10 μg mL^−1, 551344, BD Biosciences), anti-CA19-9 (10 μg mL^−1, ab15146, Abcam), anti-IGF-1R (2 μg mL^−1, 24-60, Invitrogen) or isotype antibodies for 1 h at 37° C., respectively. To remove cell surface glycoprotein, M-CSCs were incubated with Trypsin/EDTA solution (0.05%, 25300054, Gibco) for 5 min and neutralized with the complete medium. To inhibit glycolipid synthesis, M-CSCs were cultured with or without DL-PPMP (2.5 μM, sc-205655, Santa Cruz) in serum-free medium for 5 days. To test the involvement of RTKs in mediating CSCs adhesion, M-CSCs were treated with or without small molecule inhibitors as indicated in the FIG. 13 before perfusion. All CSC perfusion experiments were repeated with HPMCs isolated from at least 3 different patients.

P-selectin-Fc = test: Microfluidic perfusion assay of M-CSCs on P-selectin-Fc recombinant protein-coated channels; assay type: cell-based; settings: for effect on M-CSCs binding/adhesion to P-selectin-Fc: M-CSCs treated before perfusion, result in words
Procedure: as §1, §2, §3, §4

[1] = target: P-selectin recombinant protein (Homo sapiens, UniProt P16109); test: Flow adhesion assay of HM and NM cells on P-selectin recombinant protein; assay type: cell-based; settings: 5 mM EDTA solution, shear stress 1 dynes/cm^2 for 1 min
Sequence of P-selectin recombinant protein (P16109 with tags, fused parts or gaps limits assumed, species assumed): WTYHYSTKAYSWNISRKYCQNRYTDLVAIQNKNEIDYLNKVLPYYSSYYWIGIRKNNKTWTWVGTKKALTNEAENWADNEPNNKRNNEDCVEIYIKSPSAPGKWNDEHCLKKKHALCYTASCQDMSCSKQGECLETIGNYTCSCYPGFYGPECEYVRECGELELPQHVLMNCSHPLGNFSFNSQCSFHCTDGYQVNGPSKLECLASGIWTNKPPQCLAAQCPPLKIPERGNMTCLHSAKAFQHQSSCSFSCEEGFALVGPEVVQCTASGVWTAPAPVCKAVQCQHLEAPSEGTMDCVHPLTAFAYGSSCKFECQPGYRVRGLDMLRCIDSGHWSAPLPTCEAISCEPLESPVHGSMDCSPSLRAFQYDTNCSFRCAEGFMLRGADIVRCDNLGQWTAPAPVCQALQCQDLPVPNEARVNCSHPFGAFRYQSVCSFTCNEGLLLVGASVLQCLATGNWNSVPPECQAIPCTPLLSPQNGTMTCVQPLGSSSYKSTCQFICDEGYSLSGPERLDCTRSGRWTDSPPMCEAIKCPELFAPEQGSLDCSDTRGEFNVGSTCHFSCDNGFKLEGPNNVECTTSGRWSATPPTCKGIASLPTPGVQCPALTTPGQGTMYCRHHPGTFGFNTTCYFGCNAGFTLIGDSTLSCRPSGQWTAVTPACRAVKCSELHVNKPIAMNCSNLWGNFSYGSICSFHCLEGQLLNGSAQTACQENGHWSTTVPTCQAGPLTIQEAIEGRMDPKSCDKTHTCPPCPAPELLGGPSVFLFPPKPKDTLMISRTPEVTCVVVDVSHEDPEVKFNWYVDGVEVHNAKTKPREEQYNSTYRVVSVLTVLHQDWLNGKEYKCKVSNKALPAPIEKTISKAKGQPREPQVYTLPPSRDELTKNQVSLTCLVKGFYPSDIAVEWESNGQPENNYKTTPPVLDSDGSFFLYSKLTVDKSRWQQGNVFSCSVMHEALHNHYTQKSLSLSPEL
Source text: FIG. 9A-9E show results of flow adhesion assay. (A) Transient velocities of representative cells on P-selectin recombinant protein. Triangles represent a rolling adhesion highly metastatic (HM) cells; Circles represent a non-interaction non-metastatic (NM) cells quickly passed through the channel. […] (B) Rolling percentage of NM and HM cells on P-selectin recombinant protein. (C) Cumulative frequency rolling velocity histograms. (D) Adhesion percentage of NM and HM cells on P-selectin recombinant protein. HM or NM cells were introduced into flow chambers pre-coated with […] P-selectin-Fc chimera or Fc control at shear stress of 0.1 dyne/cm2. Cell movement was observed under microscope and captured with high speed camera. Cancer cells rolling velocity was calculated by dividing moving distance with duration. […] Adhesion was defined as cancer cells stop moving for more than one second during recording. The rolling or adhesion fraction was quantified through dividing the number of rolling or adhesive cells by the total number of cells traveled into the field of observation area for 30 seconds. (E) Adhesion percentage of NM and HM cells on P-selectin-Fc chimera at shear stress of 0.05-0.15 dyne/cm2. Data are presented as mean±S.E.; *P<0.05, **P<0.01.
FIG. 10A-10B show EDTA detachment assay. […] (A) A brightfield microscope image of captured HM cells. […]

P-selectin = target: T1, P-selectin (Mus musculus, UniProt Q01102); test: Adhesion of tumor cells to the mouse peritoneum; assay type: in vivo; settings: 1 mg kg^-1 i.p. 1 h prior to injection of M-CSCs from SKOV-3 and ovarian cancer patients; NOD/SCID mice
T1 construct: from tissue; host or cells: peritoneum, mesentery and omentum of living NOD/SCID mice
T1 sequence (Q01102 42-768): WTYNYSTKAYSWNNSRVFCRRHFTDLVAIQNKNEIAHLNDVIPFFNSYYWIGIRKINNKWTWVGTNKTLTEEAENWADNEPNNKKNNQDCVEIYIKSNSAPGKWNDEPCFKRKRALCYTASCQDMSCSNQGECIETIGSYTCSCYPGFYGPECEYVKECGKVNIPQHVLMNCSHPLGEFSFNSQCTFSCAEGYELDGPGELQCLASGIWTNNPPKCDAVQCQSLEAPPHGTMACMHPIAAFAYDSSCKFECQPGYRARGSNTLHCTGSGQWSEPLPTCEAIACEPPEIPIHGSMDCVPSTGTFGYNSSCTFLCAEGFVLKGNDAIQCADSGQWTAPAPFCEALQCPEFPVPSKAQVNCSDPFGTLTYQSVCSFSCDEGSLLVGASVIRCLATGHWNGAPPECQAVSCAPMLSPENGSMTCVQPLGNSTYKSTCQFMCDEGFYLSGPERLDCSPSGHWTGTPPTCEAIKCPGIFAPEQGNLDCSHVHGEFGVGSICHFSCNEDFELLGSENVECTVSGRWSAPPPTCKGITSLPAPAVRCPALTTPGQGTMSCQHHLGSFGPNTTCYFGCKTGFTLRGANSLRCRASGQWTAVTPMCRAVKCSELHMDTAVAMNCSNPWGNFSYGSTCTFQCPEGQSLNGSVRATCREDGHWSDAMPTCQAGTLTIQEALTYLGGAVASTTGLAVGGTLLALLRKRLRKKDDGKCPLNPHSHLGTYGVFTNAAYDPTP
Procedure: M-CSCs (1×10^7) derived from SKOV-3 and ovarian cancer patients were fluorescently labeled with CMFDA and i.p. injected into NOD/SCID mice. To inhibit P-selectin, KF38789 (1 mg kg^−1, 2748, Tocris) or vehicle control were injected into the peritoneal cavity of mice 1 h prior to cell injection. Mice were sacrificed after 16 h and the peritoneal cavity was washed with PBS to remove non-adherent cells. Fluorescent signal from adherent tumor cells was acquired in the IVIS Spectrum and peritoneum, mesentery, and omentum were lysed with 1% NP-40 and fluorescence was measured with VICTOR (PerkinElmer).

[2] = shear stress around 1 dynes cm^-2

| effect on M-CSCs binding/adhesion to HPMCs (M-CSC-HPMC interaction) | effect on M-CSCs binding/adhesion to P-selectin-Fc (P-selectin-Fc) | detachment of captured HM cells from P-selectin-coated channel bottom [1] | extent of tumor metastases on the omentum, mesenteries and peritoneal wall (P-selectin) | Compound | detachment of adherent M-CSCs from HPMCs (M-CSC-HPMC interaction; [2]) | detachment of adherent M-CSCs from P-selectin chimera (P-selectin-Fc; [2]) |
| --- | --- | --- | --- | --- | --- | --- |
| inhibited the adhesion | – | easily detached | – | O=C(O)CN(CCN(CC(=O)O)CC(=O)O)CC(=O)O [EDTA] | easily detach | easily detach |
| – | – | – | significantly inhibited | COc1ccc(C2CC(c3c(O)cc(C)oc3=O)=NCCS2)c(OC)c1 (stereo not drawn) [KF38789] | – | – |
| had no effect | had no effect | – | – | CCCCCCCCCCCCCCCC(=O)N[C@H](CN1CCOCC1)[C@H](O)c1ccccc1 [PPMP] | – | – |
| marked decrease | marked decrease | – | – | O=c1c(-c2ccc(O)cc2)coc2cc(O)cc(O)c12 [genistein] | – | – |
| almost completely abolished the adhesion | almost completely abolished the adhesion | – | – | trypsin | – | – |

| Compound | effect on M-CSCs binding/adhesion to HPMCs (M-CSC-HPMC interaction) | effect on M-CSCs binding/adhesion to P-selectin-Fc (P-selectin-Fc) | detachment of captured HM cells from P-selectin-coated channel bottom [1] | extent of tumor metastases on the omentum, mesenteries and peritoneal wall (P-selectin) | detachment of adherent M-CSCs from HPMCs (M-CSC-HPMC interaction; [2]) | detachment of adherent M-CSCs from P-selectin chimera (P-selectin-Fc; [2]) |
| --- | --- | --- | --- | --- | --- | --- |
| CC(C)(C)c1cc(C=C(C#N)C#N)cc(Br)c1O [AG1024] | marked decrease | marked decrease | – | – | – | – |
| [Na+].[O-][Cl+2]([O-])[O-] [sodium chlorate] | did not alter the binding activity | did not alter the binding activity | – | – | – | – |
